Consider 33 compounds from a melting point compilation (Tetko et al.; mined from patent text by program, amines drawn as free bases though some values may be those of a salt).

Some results are limits rather than exact numbers.

What is called melting point is the temperature of the solid-liquid transition.

With `OCc1ccc(-c2coc(-c3cn([C@H]4CN5CCC4CC5)nn3)c2)cc1`, the melting point turned out to be 202 °C.

In turn, `Cn1cc(C2=C(c3c4n(c5ccccc35)CCC(C(N)=O)C4)C(=O)OC2=O)c2ccccc21` (stereo not drawn) showed a melting point of 307 to 309 °C.

The compound `CN1CCN(c2ccccc2C=C2CCN(c3ccc(Cl)c(Cl)c3)C2=O)CC1` returned a melting point of 177 to 179 °C.

For `CC(C)(C)OC(=O)N1CC(c2ccc(N=C(c3ccccc3)c3ccccc3)nc2)C1`, the melting point lay within 104 to 105 °C.

For the compound `O=S(=O)(c1ccccc1)c1ccc(Oc2ccc(Cl)c(Cl)c2)nc1`, the melting point fell in the range of 113 to 114 °C.

`CCCCCCn1c(-c2ccc3c(c2)OCO3)nc2ccccc21` displayed a melting point of 60.5 to 61.6 °C.

In turn, `CS(=O)(=O)c1ccc(-c2sc(-c3ccc(F)c(Cl)c3)nc2-c2ccc(F)cc2)cc1` returned a melting point of 165 to 167 °C.

As to `COC1C(O)C(CO)OC1n1cnc2c(N)nc(N)nc21` (stereo not drawn), the melting point is 133 to 135 °C.

Compound `O=C(/C=C/c1ccccc1F)N1CCN(C(=O)c2cc(C(F)(F)F)cc(C(F)(F)F)c2)[C@H](Cc2c[nH]c3ccccc23)C1` returned a melting point of 110 to 114 °C.

For `CCOC(=O)C1=C(CO)NC(C(F)(F)F)=C(C(=O)OCC)C1c1cccc2nonc12` (stereo not drawn), the melting point was 110 to 111 °C.

In turn, `CCCOc1ccc(C#N)cc1-c1ccc(C#N)c(=O)[nH]1` gave a melting point of 248 to 251 °C.

For `COC(=O)c1ccc(CCc2csc(NC(C)=O)n2)cc1`, the melting point is 170 to 171 °C.

`CSc1nc(N)c(C#N)c(N2CCc3ccccc3CC2)n1`: the melting point is above 200 °C.

In the case of `c1ccc2c(c1)Cc1ccccc1N1CCCN=C21`, the melting point lay within 139 to 141 °C.

In turn, `O=C1OC(CO)CN1c1ccc2ccccc2c1` (stereo not drawn) displayed a melting point of 174 °C.

Regarding `CC(C)(C)OC(=O)N1CCC(CCC(=O)N2CCC[C@@H](C(=O)O)C2)CC1`, the melting point is 102 to 104 °C.

For the compound `CCCn1c(=O)c2c(NC(C)=O)n[nH]c2n(Cc2ccccc2)c1=O`, the melting point was 108 to 110 °C.

The compound `O=C(CCCCCCCCCCCNC(=O)OCc1ccccc1)OC(=O)CCCCCCCCCCCNC(=O)OCc1ccccc1` came in with a melting point of 72 to 73 °C.

With `OCc1cnoc1-c1cccc(Cl)c1`, the melting point lay within 80 to 81 °C.

`N[C@@H](Cc1ccccc1)c1nc2c(C(F)(F)F)cccc2c(O)c1C(=O)Nc1nccs1` came in with a melting point of 234 °C.

On to `Clc1cccc(C2CCN(CCCCOc3ccc4scnc4c3)CC2)c1Cl`, for which the melting point was in the range of 79 to 81 °C.

`CC(C)(C)c1cc(NC(=O)c2csc(-c3ccc([N+](=O)[O-])cc3)n2)cc(C(C)(C)C)c1O`: the melting point was in the range of 262 to 264 °C.

The compound `CS(=O)(=O)Oc1ccc2c(c1)CN(C(=O)CCCCCN1CCN(c3cccc(C(F)(F)F)c3)CC1)C2` displayed a melting point of 109 °C.

In turn, `CC(C)C(=O)Nc1ccc(S(=O)(=O)c2ccc(F)cc2)cc1` yielded a melting point of 112 to 115 °C.

The compound `c1cc(N2CCCCC2)ccc1OC12CC3CC(CC(C3)C1)C2` registered a melting point of 72 to 73.5 °C.

In turn, `CC1Cc2ccc(Br)cc2C(c2ccc(N)cc2)=NN1C(=O)C(F)(F)F` (stereo not drawn) registered a melting point of 93 to 96 °C.

In turn, `O=c1nc(-c2ccc([N+](=O)[O-])cc2)oc2ccccc12` showed a melting point of 249 to 251 °C.

As to `CCOC(=O)CNS(=O)(=O)c1ccc(N2CCC(NC[C@H](O)c3ccc(O)c(NS(C)(=O)=O)c3)CC2)cc1`, the melting point was 105 to 107 °C.

`C#Cc1cccc(Nc2ncnc3cnc(NC(=O)/C=C/CN(C)C)cc23)c1`: the melting point was in the range of 163 to 166 °C.

Compound `CCCCC(c1cc(F)ccc1F)S(=O)c1ccc(Cl)cc1` (stereo not drawn) gave a melting point of 108 to 109 °C.

Take `CC(C)n1nc(-c2sc(NC(=O)c3ccccc3)nc2-c2ccccc2)ccc1=O`: the melting point lay within 126 to 129 °C.

As for `CCOC(=O)[C@H]1[C@@H]2C=CC(=O)[C@@H]21` (racemic), the melting point lay in the range of 77 to 78 °C.

`CN1C(=O)CC[C@]2(C)c3ccc(SCc4nc5ccccc5s4)cc3CC[C@@H]12` displayed a melting point of 78 to 80 °C.
